Experimental data: patent US9044038B2, “Method of improving sweetness qualities of stevia extract” (SAN-EI GEN F.F.I., INC., priority 2007, dated 2015)
Peptide text beside a SMILES is read from it.

Columns and labels:
[1] = Concentration of sweetener with the same degree of sweetness as a 6% aqueous sucrose solution (Example 14, Table 20); assay type: in vivo
Method: Aqueous solutions containing various sweeteners (stevia extract, siraitia grosvenori extract, licorice extract, thaumatin, aspartame, and neotame) in the concentrations shown in Table 20 were prepared.

panelists [2] = experiment: Improvement in sweetness quality of sweeteners by additives, panel score (Example 14); assay type: in vivo; details: for improvement in sweetness quality, average score of twelve panelists: vs sweetener alone, 2 improvement, 1 slight improvement, 0 no improvement; for improvement in the sweetness quality of stevia extract: additive added to 0.03% stevia extract aqueous solution
Method: Aqueous solutions containing various sweeteners (stevia extract, siraitia grosvenori extract, licorice extract, thaumatin, aspartame, and neotame) in the concentrations shown in Table 20 were prepared. […] The evaluation was conducted by scoring the improvement in sweetness quality based on the criteria described below in comparison with an aqueous solution containing only each of the sweeteners (Control).

panelists [3] = experiment: as above; assay type: in vivo; details: additive added to 0.03% stevia extract aqueous solution
[4] = Concentration having the same degree of sweetness as a 5% aqueous sucrose solution (Example 1, Table 1); assay type: in vivo
From the text: The degree of sweetness of rebaudioside A and that of mogroside V depends on the pH. […] Citric acid and trisodium citrate were used to prepare pH3 and pH4.5 solutions, and sodium bicarbonate was used to prepare pH7 solutions.

[5] = general statement in description; cited from earlier work
[6] = additive Gentiooligosaccharide (Gentose#45) 0.4%
[7] = additive Highly branched cyclic dextrin (Cluster Dextrin) 0.07%
[8] = additive Magnesium chloride 0.05%
[9] = additive Magnesium sulfate 0.05%

| Molecule | Concentration (%) exhibiting the same degree of sweetness as a 6% aqueous sucrose solution [1] [%] | improvement in sweetness quality, average score of twelve panelists (panelists [2]; [6]) [points] | improvement in sweetness quality, average score of twelve panelists (panelists [2]; [7]) [points] | improvement in sweetness quality, average score of twelve panelists (panelists [2]; [8]) [points] | improvement in sweetness quality, average score of twelve panelists (panelists [2]; [9]) [points] | improvement in sweetness quality, average score of twelve panelists (panelists [2]; additive Naringin 0.0025%) [points] | remaining aftertaste of sweetness in stevia extract (panelists [3]) | richness (body) of stevia extract (panelists [3]) | also measured |
| --- | --- | --- | --- | --- | --- | --- | --- | --- | --- |
| COC(=O)[C@H](Cc1ccccc1)NC(=O)[C@@H](N)CC(=O)O [Aspartame, aspartame] (H-Asp-Phe-OMe) | 0.038 | 0.3 | 0.3 | 0.8 | 0.7 | 0.3 |  |  |  |
| [Cl-].[Cl-].[Mg+2] [Magnesium chloride, magnesium chloride] |  |  |  |  |  |  | reduced | increased | improvement in the sweetness quality of stevia extract (panelists [2]): remarkably excellent improvements |
| O=S(=O)([O-])[O-].[Mg+2] [Magnesium sulfate, magnesium sulfate] |  |  |  |  |  |  | reduced | increased | improvement in the sweetness quality of stevia extract (panelists [2]): remarkably excellent improvements |
| C[C@H](CC[C@@H](O[C@@H]1O[C@H](CO[C@@H]2O[C@H](CO)[C@@H](O)[C@H](O)[C@H]2O)[C@@H](O)[C@H](O)[C@H]1O[C@@H]1O[C@H](CO)[C@@H](O)[C@H](O)[C@H]1O)C(C)(C)O)[C@H]1CC[C@@]2(C)[C@@H]3CC=C4[C@@H](CC[C@H](O[C@@H]5O[C@H](CO[C@@H]6O[C@H](CO)[C@@H](O)[C@H](O)[C@H]6O)[C@@H](O)[C@H](O)[C@H]5O)C4(C)C)[C@]3(C)[C@H](O)C[C@]12C [Mogroside V, mogroside V] |  |  |  |  |  |  |  |  | concentration having the same degree of sweetness as a 5% aqueous sugar solution ([4]; pH 3, substance singly): 0.03%; concentration having the same degree of sweetness as a 5% aqueous sugar solution ([4]; pH 4.5, substance singly): 0.03%; concentration having the same degree of sweetness as a 5% aqueous sugar solution ([4]; pH 7, substance singly): 0.0255%; degree of sweetness (sweetness intensity) [5]: about 300 times that of sucrose |
| C[C@@H]1O[C@@H](O[C@H]2[C@H](Oc3cc(O)c4c(c3)O[C@H](c3ccc(O)cc3)CC4=O)O[C@H](CO)[C@@H](O)[C@@H]2O)[C@H](O)[C@H](O)[C@H]1O [Naringin, naringin] |  |  |  |  |  |  | reduced | increased |  |
| COC(=O)[C@H](Cc1ccccc1)NC(=O)[C@H](CC(=O)O)NCCC(C)(C)C [Neotame, neotame] | 0.0008 | 0.8 | 0.8 | 0.8 | 0.8 | 1.0 |  |  |  |
| C=C1C[C@@]23CC[C@H]4[C@@](C)(CCC[C@@]4(C)C(=O)O[C@@H]4O[C@H](CO)[C@@H](O)[C@H](O)[C@H]4O)[C@@H]2CC[C@]1(O[C@@H]1O[C@H](CO)[C@@H](O)[C@H](O[C@@H]2O[C@H](CO)[C@@H](O)[C@H](O)[C@H]2O)[C@H]1O[C@@H]1O[C@H](CO)[C@@H](O)[C@H](O)[C@H]1O)C3 [Rebaudioside A, rebaudioside A] |  |  |  |  |  |  |  |  | concentration having the same degree of sweetness as a 5% aqueous sugar solution ([4]; pH 3, substance singly): 0.0228%; concentration having the same degree of sweetness as a 5% aqueous sugar solution ([4]; pH 4.5, substance singly): 0.0219%; concentration having the same degree of sweetness as a 5% aqueous sugar solution ([4]; pH 7, substance singly): 0.02% |
| thaumatin | 0.0024 | 0.8 | 0.5 | 1.0 | 1.3 | 0.7 |  |  |  |
